Results: US20240180882A1, “COMPOUNDS FOR PROTECTION OF NOISE-INDUCED HEARING-LOSS” (The Regents of the University of California, priority 2021, published 2024)
Read-outs that look alike come from different tables or passages of the source.

What was measured:
[1] = Drug distribution of Compound 1 in mouse plasma, brain and perilymph after oral dosing; assay type: in vivo; conditions: 2 h after a 300 mg/kg p.o. dose
Protocol: Complete ADME and PK assessment of Compound 1 and Compound 2 at several doses by oral and intratympanic (IT) dosing in wild-type mice and in transgenic efflux-pump knock-out mice to benchmark compound exposure. […] Drug distribution of Compound 1 in a mouse was determined after dosing at 300 mg/kg.

[2] = PAMPA permeability; assay type: in vitro ADME
[3] = tested on: six-week-old B6 mice; experiment: Noise-induced hearing loss in mice after moderate noise exposure (ABR thresholds, IHC synaptic ribbons), orally administered compound; assay type: in vivo, mouse
From the text: FIGS. 9A-9C depict that Compound 1 administration is protective against mid- to high-frequency hearing loss and synaptic ribbon loss. (A) Threshold elevation two-weeks after moderate noise exposure is reduced in six-week-old B6 mice treated with orally administered Compound 1 either prior or after noise exposure. […] (C) Quantification of paired synaptic ribbons in mice two weeks after exposure to moderate noise given vehicle (top row) and Compound 1 (bottom row). (n=4; scale bar=[…]).
Inducing NIHL in mice. To induce NIHL, mice are exposed to octave band noise (OBN) with a center frequency of 10 kHz for 2 hours using a method adapted from Kujawa, Sharon G., and M. Charles Liberman. “Adding insult to injury: cochlear nerve degeneration after “temporary” noise-induced hearing loss.” Journal of Neuroscience 29.45 (2009): 14077-14085., which is incorporated herein by reference in its entirety.
There has been increasing interest in AMPK activation in human disease. […] The activation pathways and downstream targets of AMPK differ depending on its subcellular localization (FIG. 8C). In response to energy stress, LKB1 activates cytoplasmic and lysosomal AMPK in an axin-dependent manner as exemplified by phosphorylation of the AMPK target ACC1, whereas it activates mitochondrial AMPK in an axin-independent manner as exemplified by phosphorylation of the AMPK target ACC2. […]

[4] = tested on: AMPK; experiment: AMPK activation in inner and outer hair cells of treated mice; assay type: in vivo, mouse
From the text: There has been increasing interest in AMPK activation in human disease. […] The activation pathways and downstream targets of AMPK differ depending on its subcellular localization (FIG. 8C). In response to energy stress, LKB1 activates cytoplasmic and lysosomal AMPK in an axin-dependent manner as exemplified by phosphorylation of the AMPK target ACC1, whereas it activates mitochondrial AMPK in an axin-independent manner as exemplified by phosphorylation of the AMPK target ACC2. By contrast, activation of nuclear AMPK in response to elevated intracellular Ca^2+ levels are mediated by CaMKK2. For the observed noise-induced activation of nuclear AMPK in IHCs, in the absence of which (γ2 deficiency) mice suffer greater synaptic ribbon morphometric changes and NIHL (FIGS. 3A-3D & 4A-4E), AMPK may be activated by CaMKK2, especially given that physiological sound relay to the auditory nerve in IHCs involves transient Ca2+ elevation.

[5] = Concentration in perilymph and plasma following intratympanic dosing in two mouse strains (LC-MS/MS); assay type: in vivo, C57BL/6J and FVB mice; conditions: 5 μL of 5 mg/mL in 5% DMSO-95% Poloxamer 407 solution, all plasma data points except one
Protocol: Compound 1 was dissolved DMSO and added to a cold solution of 20% Poloxamer 407 in PBS. The mixture was vortexed to give a solution of final solution of 5 mg/mL Compound 1 in 5% DMSO-95% Poloxamer 407 solution.
In fully anesthetized mice, the mouse bulla was reached through the digastric and sternocleidomastoid muscles and a 27-gauge needle was used to drill an opening adjacent to the round window niche. 5 μL of Compound 1 in the cold 5%/95% DMSO/Poloxamer 407 hydrogel vehicle was introduced by intratympanic injection in both C57BL/6J and FVB mice. Upon reaching the desired time point, mice were euthanized under deep anesthesia. Blood from the heart was collected to determine drug plasma levels. The mouse bulla was re-exposed to verify the injection site and all possible drug remaining were removed from inner ear before collecting the perilymph from the apical side of the cochlea.
Drug levels were measured using LC-MS/MS (Q-trap) with 500 nM indomethacin as the internal standard. Perilymph samples were diluted 10× in plasma. An aliquot of 1 μL sample was protein precipitated with 50 μL IS, the mixture was vortex-mixed well and centrifuged at 3600 rpm for 10 min, Room Temp. 10 μL supernatant was injected for LC-MS/MS analysis. […]

[6] = Test article handling / stability information; assay type: physicochemical; conditions: room temp
[7] = analysis of known AMPK activators; cited from earlier work
[8] = preclinical data; cited from earlier work

concentration at 2 h ([1]; brain, read-out: Brain level of Compound 1): 45 ± 5 µM
concentration at 2 h ([1]; perilymph, read-out: Perilymph level of Compound 1): 0.87 ± 0.04 µM
concentration at 2 h ([1]; plasma, read-out: Plasma level of Compound 1): 443 ± 64 µM
Papp [2]: 24 ×10⁻⁶ cm/s
Plasma concentration following intratympanic dosing [5]: below the level of detection
Stability of test article [6]: Compound 1 stable at room temp
Structure (SMILES): O[C@@H]1CO[C@H]2[C@@H]1OC[C@H]2Oc1nc2nc(-c3ccc(-c4ccccc4)cc3)c(Cl)cc2[nH]1 [Compound 1, (3R,3aR,6R,6aR)-6-((5-([1,1′-biphenyl]-4-yl)-6-chloro-3H-imidazo[4,5-b]pyridin-2-yl)oxy)hexahydrofuro[3,2-b]furan-3-ol]
ABR threshold elevation two weeks after moderate noise exposure ([3]; orally administered either prior or after noise exposure, six-week-old B6 mice): reduced
IHC (32 kHz region) synaptic ribbon counts after moderate noise exposure ([3]; two weeks after exposure to moderate noise, vs vehicle, n=4): preservation
AMPK activation in hair cells [4]: nuclear and cytoplasmic activation of AMPK in both inner and outer hair cells
Passive permeability (in words) [7]: high passive permeability
Effect on glucose homeostasis [8]: improve glucose homeostasis
